Measurements published in ChEMBL document CHEMBL1201862, “PubChem BioAssay data set” (2004).
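Step 1: Grow cells in 96-well plates. Step 2: Expose to compound for 48 hours at 5 concentrations. Step 3: Interpolate endpoints linearly; if unreached, use highest concentration. GI50 is the concentration that inhibits growth by half.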 Calls of active or inactive are those of the source. No stated cut-off is given here; in the data, active = GI50 up to about 1.1 µM and inactive = higher.

Key:
Test in all cases: inhibition of tumour cell growth, NCI panel, 48 h
[1] = test system: 786-0
[2] = test system: A549
[3] = test system: CAKI-1
[4] = test system: CCRF-CEM
[5] = test system: HCC 2998
[6] = test system: HT-29
[7] = test system: Hs-578T
[8] = test system: K562
[9] = test system: MDA-MB-435
[10] = test system: MDA-N
[11] = test system: MOLT-4
[12] = test system: Malme-3M
[13] = test system: NCI-H226
[14] = test system: NCI-H23
[15] = test system: NCI/ADR-RES
[16] = test system: OVCAR-4
[17] = test system: RPMI-8226
[18] = test system: SK-MEL-28
[19] = test system: SK-MEL-2
[20] = test system: U-251

O=C(O)Cc1cccnc1
GI50 [1]: > 100 µM (inactive) | GI50 [2]: > 100 µM (inactive) | GI50 [3]: > 100 µM (inactive) | GI50 [4]: > 100 µM (inactive) | GI50 [5]: > 100 µM (inactive) | GI50 [6]: > 100 µM (inactive) | GI50 [7]: > 100 µM (inactive) | GI50 [8]: > 100 µM (inactive) | GI50 [9]: > 100 µM (inactive) | GI50 [10]: > 100 µM (inactive) | GI50 [11]: > 100 µM (inactive) | GI50 [12]: > 100 µM (inactive) | GI50 [13]: > 100 µM (inactive) | GI50 [14]: > 100 µM (inactive) | GI50 [15]: > 100 µM (inactive) | GI50 [16]: > 100 µM (inactive) | GI50 [17]: > 100 µM (inactive) | GI50 [18]: > 100 µM (inactive) | GI50 [19]: > 100 µM (inactive) | GI50 [20]: > 100 µM (inactive)

CC1(C)CCC(=O)NC1CC(=O)CC1NC(=O)CCC1(C)C (stereo not given)
GI50 [1]: > 100 µM (inactive) | GI50 [2]: > 100 µM (inactive) | GI50 [3]: > 100 µM (inactive) | GI50 [4]: > 100 µM (inactive) | GI50 [5]: > 100 µM (inactive) | GI50 [6]: > 100 µM (inactive) | GI50 [7]: > 100 µM (inactive) | GI50 [8]: > 100 µM (inactive) | GI50 [9]: > 100 µM (inactive) | GI50 [10]: > 100 µM (inactive) | GI50 [11]: > 100 µM (inactive) | GI50 [12]: > 100 µM (inactive) | GI50 [13]: > 100 µM (inactive) | GI50 [14]: > 100 µM (inactive) | GI50 [15]: > 100 µM (inactive) | GI50 [16]: > 100 µM (inactive) | GI50 [17]: > 100 µM (inactive) | GI50 [18]: > 100 µM (inactive) | GI50 [19]: > 100 µM (inactive) | GI50 [20]: > 100 µM (inactive)

COc1ccc(-c2cn3c(n2)sc2cc(C)ccc23)cc1
GI50 [1]: 18.3 µM (inactive) | GI50 [2]: 24.4 µM (inactive) | GI50 [3]: 57.5 µM (inactive) | GI50 [4]: 19.8 µM (inactive) | GI50 [5]: 12.5 µM (inactive) | GI50 [6]: 5.96 µM (inactive) | GI50 [7]: 18.2 µM (inactive) | GI50 [8]: 3.64 µM (inactive) | GI50 [9]: 5.28 µM (inactive) | GI50 [10]: 5.08 µM (inactive) | GI50 [11]: 17.5 µM (inactive) | GI50 [12]: 37.8 µM (inactive) | GI50 [13]: 15.2 µM (inactive) | GI50 [14]: 9.29 µM (inactive) | GI50 [15]: > 100 µM (inactive) | GI50 [16]: 10.9 µM (inactive) | GI50 [17]: 3.93 µM (inactive) | GI50 [18]: 38.3 µM (inactive) | GI50 [19]: 14.3 µM (inactive) | GI50 [20]: 4.13 µM (inactive)

CC1(CNCc2ccccc2)CC(CCc2ccccc2)N(C(=O)c2ccc([N+](=O)[O-])cc2)C1Cc1ccc(O)cc1 (stereo not given)
GI50 [1]: 11.8 µM (inactive) | GI50 [2]: 10.4 µM (inactive) | GI50 [3]: 12.9 µM (inactive) | GI50 [4]: 23.2 µM (inactive) | GI50 [5]: 13.1 µM (inactive) | GI50 [6]: 5.65 µM (inactive) | GI50 [7]: 13.5 µM (inactive) | GI50 [8]: 33.7 µM (inactive) | GI50 [9]: 14.2 µM (inactive) | GI50 [10]: 12.3 µM (inactive) | GI50 [11]: 13.2 µM (inactive) | GI50 [12]: 19.2 µM (inactive) | GI50 [13]: 9.93 µM (inactive) | GI50 [14]: 10.3 µM (inactive) | GI50 [15]: 14.7 µM (inactive) | GI50 [16]: 9.91 µM (inactive) | GI50 [17]: 17.3 µM (inactive) | GI50 [18]: 31 µM (inactive) | GI50 [19]: 13.6 µM (inactive) | GI50 [20]: 12.3 µM (inactive)

Cc1ccc(C(=O)OC[C@H]2CC[C@@H](n3cc(N(C)C4CCCCC4)c(=O)[nH]c3=O)O2)cc1
GI50 [1]: 28.1 µM (inactive) | GI50 [2]: 28.7 µM (inactive) | GI50 [3]: 31.4 µM (inactive) | GI50 [4]: 27.4 µM (inactive) | GI50 [5]: > 100 µM (inactive) | GI50 [6]: 18.5 µM (inactive) | GI50 [7]: 35.8 µM (inactive) | GI50 [8]: 38 µM (inactive) | GI50 [9]: 65.2 µM (inactive) | GI50 [10]: 23.7 µM (inactive) | GI50 [11]: 30 µM (inactive) | GI50 [12]: 24.7 µM (inactive) | GI50 [13]: 24.4 µM (inactive) | GI50 [14]: 43.9 µM (inactive) | GI50 [15]: 20 µM (inactive) | GI50 [16]: 30.9 µM (inactive) | GI50 [17]: 31.4 µM (inactive) | GI50 [18]: 53.1 µM (inactive) | GI50 [19]: 85.7 µM (inactive) | GI50 [20]: 20.2 µM (inactive)

CC1(C)CCCCCC(C)(CCCCCCCCCCCO)C1=O (stereo not given)
GI50 [1]: 16.2 µM (inactive) | GI50 [2]: 15.1 µM (inactive) | GI50 [3]: 15.1 µM (inactive) | GI50 [4]: 13 µM (inactive) | GI50 [5]: 24.3 µM (inactive) | GI50 [6]: 11.9 µM (inactive) | GI50 [7]: 16.3 µM (inactive) | GI50 [8]: 15.3 µM (inactive) | GI50 [9]: 16.6 µM (inactive) | GI50 [10]: 17.9 µM (inactive) | GI50 [11]: 19.5 µM (inactive) | GI50 [12]: 16 µM (inactive) | GI50 [13]: 17.1 µM (inactive) | GI50 [14]: 16.6 µM (inactive) | GI50 [15]: 14 µM (inactive) | GI50 [16]: 15.5 µM (inactive) | GI50 [17]: 20.9 µM (inactive) | GI50 [18]: 17.9 µM (inactive) | GI50 [19]: 16.2 µM (inactive) | GI50 [20]: 17 µM (inactive)

CCN(CC)CCN1CCN=c2c3cc(OC)ccc3n3cnc4ccc1c2c43
GI50 [1]: 0.272 µM (active) | GI50 [2]: 0.425 µM (active) | GI50 [3]: 0.621 µM (active) | GI50 [4]: 0.218 µM (active) | GI50 [5]: 0.585 µM (active) | GI50 [6]: 0.0859 µM (active) | GI50 [7]: 1.63 µM (inactive) | GI50 [8]: 0.2 µM (active) | GI50 [9]: 0.522 µM (active) | GI50 [10]: 0.49 µM (active) | GI50 [11]: 0.0385 µM (active) | GI50 [12]: 1.22 µM (inactive) | GI50 [13]: 1.54 µM (inactive) | GI50 [14]: 0.713 µM (active) | GI50 [15]: 0.475 µM (active) | GI50 [16]: 0.274 µM (active) | GI50 [17]: 0.305 µM (active) | GI50 [18]: 1.5 µM (inactive) | GI50 [19]: 0.587 µM (active) | GI50 [20]: 0.789 µM (active)

CC(NC(=N)N)C(=O)O (stereo not given)
GI50 [1]: > 100 µM (inactive) | GI50 [2]: > 100 µM (inactive) | GI50 [3]: > 100 µM (inactive) | GI50 [4]: > 100 µM (inactive) | GI50 [5]: > 100 µM (inactive) | GI50 [6]: > 100 µM (inactive) | GI50 [7]: > 100 µM (inactive) | GI50 [8]: > 100 µM (inactive) | GI50 [9]: > 100 µM (inactive) | GI50 [10]: > 100 µM (inactive) | GI50 [11]: > 100 µM (inactive) | GI50 [12]: > 100 µM (inactive) | GI50 [13]: > 100 µM (inactive) | GI50 [14]: > 100 µM (inactive) | GI50 [15]: > 100 µM (inactive) | GI50 [16]: > 100 µM (inactive) | GI50 [17]: > 100 µM (inactive) | GI50 [18]: > 100 µM (inactive) | GI50 [19]: > 100 µM (inactive) | GI50 [20]: > 100 µM (inactive)

C=C(Cl)C(Cl)(CBr)CCCC(C)(C)Cl (stereo not given)
GI50 [1]: 5.04 µM (inactive) | GI50 [2]: 14.6 µM (inactive) | GI50 [3]: 1.99 µM (inactive) | GI50 [4]: > 33.7 µM (inactive) | GI50 [5]: 15.9 µM (inactive) | GI50 [6]: 1.97 µM (inactive) | GI50 [7]: 2.98 µM (inactive) | GI50 [8]: > 42 µM (inactive) | GI50 [9]: 27.2 µM (inactive) | GI50 [10]: 28.1 µM (inactive) | GI50 [11]: > 55.6 µM (inactive) | GI50 [12]: 18 µM (inactive) | GI50 [13]: > 72.9 µM (inactive) | GI50 [14]: 45 µM (inactive) | GI50 [15]: 30.4 µM (inactive) | GI50 [16]: 2.55 µM (inactive) | GI50 [17]: 1.28 µM (inactive) | GI50 [18]: 11.7 µM (inactive) | GI50 [19]: 11.4 µM (inactive) | GI50 [20]: 2.11 µM (inactive)

O=C(/C=C/c1ccc(O)c(O)c1)NC(COC(=O)/C=C/c1ccc(O)c(O)c1)C(=O)O (stereo not given)
GI50 [1]: > 100 µM (inactive) | GI50 [2]: > 100 µM (inactive) | GI50 [3]: > 100 µM (inactive) | GI50 [4]: 37.8 µM (inactive) | GI50 [5]: > 100 µM (inactive) | GI50 [6]: > 100 µM (inactive) | GI50 [7]: > 100 µM (inactive) | GI50 [8]: > 100 µM (inactive) | GI50 [9]: > 100 µM (inactive) | GI50 [10]: > 100 µM (inactive) | GI50 [11]: > 100 µM (inactive) | GI50 [12]: > 100 µM (inactive) | GI50 [13]: > 100 µM (inactive) | GI50 [14]: > 100 µM (inactive) | GI50 [15]: > 100 µM (inactive) | GI50 [16]: > 100 µM (inactive) | GI50 [17]: > 100 µM (inactive) | GI50 [18]: > 100 µM (inactive) | GI50 [19]: > 100 µM (inactive) | GI50 [20]: > 100 µM (inactive)
